The NIST ThermoML archive (doi:10.1016/j.jct.2017.08.004)

Test: molar heat capacity at constant pressure
Conditions: 101.33 kPa

OC[C@H](O)C(O)[C@@H](O)CO [L-(-)-arabitol]
molar heat capacity at constant pressure [J/K/mol]
Conditions | Small sample (50 mg) DSC | relaxation calorimetry
244.15 K, Crystal | 168.75 | –
245.15 K, Crystal | 169.35 | –
246.15 K, Crystal | 169.88 | –
247.15 K, Crystal | 170.55 | –
248.15 K, Crystal | 171.06 | –
249.15 K, Crystal | 171.85 | –
250 K, Crystal | – | 173.24
250.15 K, Crystal | 172.59 | –
251.15 K, Crystal | 173.21 | –
251.96 K, Crystal | – | 174.6
252.15 K, Crystal | 173.86 | –
253.15 K, Crystal | 174.57 | –
254.15 K, Crystal | 175.18 | –
255.15 K, Crystal | 176.03 | –
256.15 K, Crystal | 176.9 | –
257.15 K, Crystal | 177.61 | –
258.15 K, Crystal | 178.4 | –
259.15 K, Crystal | 179.26 | –
260 K, Crystal | – | 179.82
260.15 K, Crystal | 180.04 | –
261.15 K, Crystal | 180.97 | –
262.07 K, Crystal | – | 180.97
262.15 K, Crystal | 181.78 | –
263.15 K, Crystal | 182.59 | –
264.15 K, Crystal | 183.52 | –
265.15 K, Crystal | 184.23 | –
266.15 K, Crystal | 184.83 | –
267.15 K, Crystal | 185.69 | –
268.15 K, Crystal | 186.57 | –
269.15 K, Crystal | 187.58 | –
270 K, Crystal | – | 186.56
270.15 K, Crystal | 188.37 | –
271.15 K, Crystal | 189.06 | –
272.13 K, Crystal | – | 188.16
272.15 K, Crystal | 189.78 | –
273.15 K, Crystal | 190.61 | 188.71
274.15 K, Crystal | 191.19 | –
275.15 K, Crystal | 191.83 | –
276.15 K, Crystal | 192.48 | –
277.15 K, Crystal | 193.16 | –
278.15 K, Crystal | 193.84 | –
279.15 K, Crystal | 194.6 | –
280 K, Crystal | – | 193.46
280.15 K, Crystal | 195.16 | –
281.15 K, Crystal | 195.85 | –
282.15 K, Crystal | 196.47 | –
282.16 K, Crystal | – | 194.74
283.15 K, Crystal | 197.03 | –
284.15 K, Crystal | 197.67 | –
285.15 K, Crystal | 198.35 | –
286.15 K, Crystal | 198.9 | –
287.15 K, Crystal | 199.37 | –
288.15 K, Crystal | 200.05 | –
289.15 K, Crystal | 200.75 | –
290 K, Crystal | – | 200.53
290.15 K, Crystal | 201.49 | –
291.15 K, Crystal | 202.11 | –
292.15 K, Crystal | 202.64 | –
292.27 K, Crystal | – | 201.73
293.15 K, Crystal | 203.3 | –
294.15 K, Crystal | 203.94 | –
295.15 K, Crystal | 204.77 | –
296.15 K, Crystal | 205.37 | –
297.15 K, Crystal | 206.12 | –
298.15 K, Crystal | 206.77 | 206.44
299.15 K, Crystal | 207.42 | –
300 K, Crystal | – | 207.8
300.15 K, Crystal | 208.27 | –
301.15 K, Crystal | 209.11 | –
302.15 K, Crystal | 209.85 | –
302.3 K, Crystal | – | 209.95
303.15 K, Crystal | 210.71 | –
304.15 K, Crystal | 211.4 | –
305 K, Crystal | 212.36 | –
305.15 K, Crystal | 212.38 | –
306.15 K, Crystal | 213.15 | –
307.15 K, Crystal | 214.11 | –
308.15 K, Crystal | 215.16 | –
309.15 K, Crystal | 216.11 | –
310 K, Crystal | 217.12 | –
310.15 K, Crystal | 217.05 | –
311.15 K, Crystal | 218.22 | –
312.15 K, Crystal | 219.18 | –
313.15 K, Crystal | 220.1 | –
314.15 K, Crystal | 221.04 | –
315 K, Crystal | 221.96 | –
315.15 K, Crystal | 222.13 | –
316.15 K, Crystal | 223.18 | –
317.15 K, Crystal | 224.21 | –
318.15 K, Crystal | 225.16 | –
319.15 K, Crystal | 226.14 | –
320 K, Crystal | 226.85 | –
320.15 K, Crystal | 227.12 | –
321.15 K, Crystal | 228.27 | –
322.15 K, Crystal | 229.22 | –
323.15 K, Crystal | 230.47 | –
324.15 K, Crystal | 231.33 | –
325 K, Crystal | 231.9 | –
325.15 K, Crystal | 232.46 | –
326.15 K, Crystal | 233.49 | –
327.15 K, Crystal | 234.58 | –
328.15 K, Crystal | 235.6 | –
329.15 K, Crystal | 236.61 | –
330 K, Crystal | 237.4 | –
330.15 K, Crystal | 237.74 | –
331.15 K, Crystal | 238.74 | –
332.15 K, Crystal | 239.92 | –
333.15 K, Crystal | 241.19 | –
335 K, Crystal | 243.8 | –
340 K, Crystal | 251.69 | –
345 K, Crystal | 261.85 | –
387.05 K, Liquid | 440.32 | –
387.15 K, Liquid | 440.19 | –
388.15 K, Liquid | 440.32 | –
389.15 K, Liquid | 440.39 | –
390 K, Liquid | 440.74 | –
390.15 K, Liquid | 440.65 | –
391.15 K, Liquid | 440.67 | –
392.15 K, Liquid | 440.92 | –
393.15 K, Liquid | 441.37 | –
394.15 K, Liquid | 441.72 | –
395 K, Liquid | 442.06 | –
395.15 K, Liquid | 441.9 | –
396.15 K, Liquid | 442.46 | –
397.15 K, Liquid | 443.18 | –
398.15 K, Liquid | 443.38 | –
399.15 K, Liquid | 443.7 | –
400 K, Liquid | 443.76 | –
400.15 K, Liquid | 444.18 | –
401.15 K, Liquid | 444.55 | –
402.15 K, Liquid | 444.8 | –
403.15 K, Liquid | 445.3 | –
404.15 K, Liquid | 445.48 | –
405 K, Liquid | 445.85 | –
405.15 K, Liquid | 445.82 | –
406.15 K, Liquid | 446.12 | –
407.15 K, Liquid | 446.57 | –
408.15 K, Liquid | 447.22 | –
409.15 K, Liquid | 447.57 | –
410 K, Liquid | 448.32 | –
410.15 K, Liquid | 448.06 | –
411.15 K, Liquid | 448.75 | –
412.15 K, Liquid | 449.48 | –
413.15 K, Liquid | 450.17 | –
414.15 K, Liquid | 450.82 | –
415 K, Liquid | 451.18 | –
415.15 K, Liquid | 451.25 | –
416.15 K, Liquid | 451.74 | –
417.15 K, Liquid | 452.58 | –
418.15 K, Liquid | 453.6 | –
